Measured values reported in US8114400B2, “Aza-bicyclic compounds and their use as stimulators of soluble guanylate cyclase” (Bayer Pharma Aktiengesellschaft, priority 2006, dated 2012).

System: aorta rings
Test: Vasorelaxant effect in vitro (phenylephrine-contracted rabbit aorta rings)
Set-up: species or system Rabbits
Details: Oryctolagus cuniculus, contraction induced by phenylephrine, 37° C., 0.1% DMSO, read-out: IC50 (concentration necessary to reduce the level of contraction by 50%)
Protocol: Rabbits are stunned by a blow to the back of the neck and are exsanguinated. The aorta is removed, freed of adherent tissue, divided into rings 1.5 mm wide and placed singly in 5 ml organ baths with carbogen-gassed Krebs-Henseleit solution of the following composition (in each case mM): NaCl: 119; KCl: 4.8; CaCl2×2H2O: 1; MgSO4×7H2O: 1.4; KH2PO4: 1.2; NaHCO3: 25; glucose: 10, under an initial tension at 37° C. The force of contraction is detected with Statham UC2 cells, amplified and digitized via A/D converters (DAS-1802 HC, Keithley Instruments Munich), and recorded in parallel on chart recorders. A contraction is induced by adding phenylephrine to the bath cumulatively in increasing concentration. After several control cycles, the substance to be investigated is added in each further run in increasing dosage each time, and the level of contraction is compared with the level of contraction achieved in the last preceding run. The concentration necessary to reduce the level of contraction by 50% (IC50) is calculated therefrom. The standard application volume is 5 μl, and the DMSO content in the bath solution corresponds to 0.1%.

Nc1nc(N)nc(-c2nn(Cc3ccccc3F)c3nccn23)n1 [Example 1, 6-[1-(2-Fluorobenzyl)-1H-imidazo[2,1-c][1,2,4]triazol-3-yl]-1,3,5-triazine-2,4-diamine]
IC50: 6.2 µM
